# Assay results as given in PubChem BioAssay (NCI).
#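 Exposure lasted 48 hours, with cells grown in 96-well plates and compounds tested at five concentrations. GI50: concentration for 50% inhibition of growth. Definition used: TGI = concentration required for complete inhibition of growth.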
# Key:
# Assay in all cases: growth of human tumour cells (NCI), 48 h
# IGROV1 ovarian = test system: IGROV1 ovarian
# HCC-2998 colon = test system: HCC-2998 colon
# OVCAR-4 ovarian = test system: OVCAR-4 ovarian
# SNB-75 CNS = test system: SNB-75 CNS
# RXF 393 renal = test system: RXF 393 renal
# HCT-15 colon = test system: HCT-15 colon
# U251 CNS = test system: U251 CNS
# M14 melanoma = test system: M14 melanoma
# KM12 colon = test system: KM12 colon
# UO-31 renal = test system: UO-31 renal
# A498 renal = test system: A498 renal
# OVCAR-3 ovarian = test system: OVCAR-3 ovarian
# OVCAR-8 ovarian = test system: OVCAR-8 ovarian
# A549 NSCLC = test system: A549 NSCLC
# HS 578T breast = test system: HS 578T breast
# CAKI-1 renal = test system: CAKI-1 renal
# K-562 leukemia = test system: K-562 leukemia
# 786-0 renal = test system: 786-0 renal
# MDA-MB-231 breast = test system: MDA-MB-231 breast
# NCI/ADR-RES ovarian = test system: NCI/ADR-RES ovarian
# LOX IMVI melanoma = test system: LOX IMVI melanoma
# MCF7 breast = test system: MCF7 breast
# NCI-H23 lung = test system: NCI-H23 lung
# EKVX NSCLC = test system: EKVX NSCLC
# HL-60(TB) leukemia = test system: HL-60(TB) leukemia
# COLO 205 colon = test system: COLO 205 colon
# SR leukemia = test system: SR leukemia
# RPMI-8226 leukemia = test system: RPMI-8226 leukemia
# OVCAR-5 ovarian = test system: OVCAR-5 ovarian
# HCT-116 colon = test system: HCT-116 colon
# UACC-257 melanoma = test system: UACC-257 melanoma
# SK-OV-3 ovarian = test system: SK-OV-3 ovarian
# MOLT-4 leukemia = test system: MOLT-4 leukemia
# NCI-H226 lung = test system: NCI-H226 lung
# CCRF-CEM leukemia = test system: CCRF-CEM leukemia
# SF-295 CNS = test system: SF-295 CNS
# UACC-62 melanoma = test system: UACC-62 melanoma
# HOP-92 NSCLC = test system: HOP-92 NSCLC
# SK-MEL-5 melanoma = test system: SK-MEL-5 melanoma
# T-47D breast = test system: T-47D breast
# SW-620 colon = test system: SW-620 colon
# ACHN renal = test system: ACHN renal
# SF-268 CNS = test system: SF-268 CNS
# MDA-MB-435 = test system: MDA-MB-435
# DU-145 prostate = test system: DU-145 prostate
# SK-MEL-28 melanoma = test system: SK-MEL-28 melanoma
# MALME-3M melanoma = test system: MALME-3M melanoma
# HOP-62 NSCLC = test system: HOP-62 NSCLC
# SF-539 CNS = test system: SF-539 CNS
# PC-3 prostate = test system: PC-3 prostate
# SNB-19 CNS = test system: SNB-19 CNS
# NCI-H460 lung = test system: NCI-H460 lung
compound,measurement,setting,value
Nc1nc(N)c(N=Nc2ccccc2)c(-c2ccccc2)n1,GI50,IGROV1 ovarian,2.01 µM
same,TGI,IGROV1 ovarian,22.2 µM
same,GI50,HCC-2998 colon,14.3 µM
same,TGI,HCC-2998 colon,> 100 µM
same,GI50,OVCAR-4 ovarian,4.03 µM
same,TGI,OVCAR-4 ovarian,20.7 µM
same,GI50,SNB-75 CNS,1.41 µM
same,TGI,SNB-75 CNS,7.8 µM
same,GI50,RXF 393 renal,3.42 µM
same,TGI,RXF 393 renal,15.4 µM
same,GI50,HCT-15 colon,5.95 µM
same,TGI,HCT-15 colon,39.9 µM
same,GI50,U251 CNS,8.27 µM
same,TGI,U251 CNS,26.8 µM
same,GI50,M14 melanoma,12 µM
same,TGI,M14 melanoma,34.6 µM
same,GI50,KM12 colon,2.89 µM
same,TGI,KM12 colon,14.5 µM
same,GI50,UO-31 renal,2.54 µM
same,TGI,UO-31 renal,24.7 µM
same,GI50,A498 renal,2.07 µM
same,TGI,A498 renal,11.4 µM
same,GI50,OVCAR-3 ovarian,10.4 µM
same,TGI,OVCAR-3 ovarian,23 µM
same,GI50,OVCAR-8 ovarian,11.1 µM
same,TGI,OVCAR-8 ovarian,37.4 µM
same,GI50,A549 NSCLC,6.85 µM
same,TGI,A549 NSCLC,22.8 µM
same,GI50,HS 578T breast,1.66 µM
same,TGI,HS 578T breast,6.88 µM
same,GI50,CAKI-1 renal,3.57 µM
same,TGI,CAKI-1 renal,23.5 µM
same,GI50,K-562 leukemia,10.3 µM
same,TGI,K-562 leukemia,> 100 µM
same,GI50,786-0 renal,5.98 µM
same,TGI,786-0 renal,19.4 µM
same,GI50,MDA-MB-231 breast,5.84 µM
same,TGI,MDA-MB-231 breast,30.5 µM
same,GI50,NCI/ADR-RES ovarian,9.53 µM
same,TGI,NCI/ADR-RES ovarian,53.1 µM
same,GI50,LOX IMVI melanoma,11 µM
same,TGI,LOX IMVI melanoma,23.5 µM
same,GI50,MCF7 breast,0.362 µM
same,TGI,MCF7 breast,18.1 µM
same,GI50,NCI-H23 lung,10.4 µM
same,TGI,NCI-H23 lung,31.4 µM
same,GI50,EKVX NSCLC,3.75 µM
same,TGI,EKVX NSCLC,30.8 µM
same,GI50,HL-60(TB) leukemia,11.1 µM
same,TGI,HL-60(TB) leukemia,> 100 µM
same,GI50,COLO 205 colon,9.29 µM
same,TGI,COLO 205 colon,25.8 µM
same,GI50,SR leukemia,4.54 µM
same,TGI,SR leukemia,73.3 µM
same,GI50,RPMI-8226 leukemia,7.98 µM
same,TGI,RPMI-8226 leukemia,46 µM
same,GI50,OVCAR-5 ovarian,6.47 µM
same,TGI,OVCAR-5 ovarian,23.8 µM
same,GI50,HCT-116 colon,5.12 µM
same,TGI,HCT-116 colon,18.3 µM
same,GI50,UACC-257 melanoma,13.7 µM
same,TGI,UACC-257 melanoma,35.9 µM
same,GI50,SK-OV-3 ovarian,4.4 µM
same,TGI,SK-OV-3 ovarian,17.5 µM
same,GI50,MOLT-4 leukemia,3.68 µM
same,TGI,MOLT-4 leukemia,68.7 µM
same,GI50,NCI-H226 lung,4.19 µM
same,TGI,NCI-H226 lung,19.4 µM
same,GI50,CCRF-CEM leukemia,8.14 µM
same,TGI,CCRF-CEM leukemia,> 100 µM
same,GI50,SF-295 CNS,3.18 µM
same,TGI,SF-295 CNS,18.6 µM
same,GI50,UACC-62 melanoma,4.33 µM
same,TGI,UACC-62 melanoma,20.1 µM
same,GI50,HOP-92 NSCLC,1.45 µM
same,TGI,HOP-92 NSCLC,9.95 µM
same,GI50,SK-MEL-5 melanoma,3.74 µM
same,TGI,SK-MEL-5 melanoma,20.3 µM
same,GI50,T-47D breast,0.487 µM
same,TGI,T-47D breast,6.91 µM
same,GI50,SW-620 colon,12.8 µM
same,TGI,SW-620 colon,27.2 µM
same,GI50,ACHN renal,4.49 µM
same,TGI,ACHN renal,19 µM
same,GI50,SF-268 CNS,5.86 µM
same,TGI,SF-268 CNS,66.8 µM
same,GI50,MDA-MB-435,11.5 µM
same,TGI,MDA-MB-435,29.5 µM
same,GI50,DU-145 prostate,9.9 µM
same,TGI,DU-145 prostate,34.1 µM
same,GI50,SK-MEL-28 melanoma,11.3 µM
same,TGI,SK-MEL-28 melanoma,28.2 µM
same,GI50,MALME-3M melanoma,4.33 µM
same,TGI,MALME-3M melanoma,24.9 µM
same,GI50,HOP-62 NSCLC,4.25 µM
same,TGI,HOP-62 NSCLC,19.2 µM
same,GI50,SF-539 CNS,6.39 µM
same,TGI,SF-539 CNS,21.1 µM
same,GI50,PC-3 prostate,3.02 µM
same,TGI,PC-3 prostate,20.8 µM
same,GI50,SNB-19 CNS,12.5 µM
same,TGI,SNB-19 CNS,43.3 µM
same,GI50,NCI-H460 lung,4.16 µM
same,TGI,NCI-H460 lung,17.8 µM
